Experimental data published in patent US11168095B2, “ASK1 inhibiting agents” (BIOGEN MA INC., priority 2017, dated 2021).
Where two headings read alike, the source gives them in different places.

Columns and labels:
[1] = molecular target: ASK1 T838 auto phosphorylation in HEK-293T cells (Homo sapiens (Human), UniProt Q99683); assay: ASK1 (AUTO PHOS T838) assay, MSD format; type: cell-based; settings: HEK 293T cells transfected with ASK1-V5 full length plasmid, compounds 1 hr at 37° C.; read-out: IC50
Sequence of ASK1 T838 auto phosphorylation in HEK-293T cells (Q99683 whole entry): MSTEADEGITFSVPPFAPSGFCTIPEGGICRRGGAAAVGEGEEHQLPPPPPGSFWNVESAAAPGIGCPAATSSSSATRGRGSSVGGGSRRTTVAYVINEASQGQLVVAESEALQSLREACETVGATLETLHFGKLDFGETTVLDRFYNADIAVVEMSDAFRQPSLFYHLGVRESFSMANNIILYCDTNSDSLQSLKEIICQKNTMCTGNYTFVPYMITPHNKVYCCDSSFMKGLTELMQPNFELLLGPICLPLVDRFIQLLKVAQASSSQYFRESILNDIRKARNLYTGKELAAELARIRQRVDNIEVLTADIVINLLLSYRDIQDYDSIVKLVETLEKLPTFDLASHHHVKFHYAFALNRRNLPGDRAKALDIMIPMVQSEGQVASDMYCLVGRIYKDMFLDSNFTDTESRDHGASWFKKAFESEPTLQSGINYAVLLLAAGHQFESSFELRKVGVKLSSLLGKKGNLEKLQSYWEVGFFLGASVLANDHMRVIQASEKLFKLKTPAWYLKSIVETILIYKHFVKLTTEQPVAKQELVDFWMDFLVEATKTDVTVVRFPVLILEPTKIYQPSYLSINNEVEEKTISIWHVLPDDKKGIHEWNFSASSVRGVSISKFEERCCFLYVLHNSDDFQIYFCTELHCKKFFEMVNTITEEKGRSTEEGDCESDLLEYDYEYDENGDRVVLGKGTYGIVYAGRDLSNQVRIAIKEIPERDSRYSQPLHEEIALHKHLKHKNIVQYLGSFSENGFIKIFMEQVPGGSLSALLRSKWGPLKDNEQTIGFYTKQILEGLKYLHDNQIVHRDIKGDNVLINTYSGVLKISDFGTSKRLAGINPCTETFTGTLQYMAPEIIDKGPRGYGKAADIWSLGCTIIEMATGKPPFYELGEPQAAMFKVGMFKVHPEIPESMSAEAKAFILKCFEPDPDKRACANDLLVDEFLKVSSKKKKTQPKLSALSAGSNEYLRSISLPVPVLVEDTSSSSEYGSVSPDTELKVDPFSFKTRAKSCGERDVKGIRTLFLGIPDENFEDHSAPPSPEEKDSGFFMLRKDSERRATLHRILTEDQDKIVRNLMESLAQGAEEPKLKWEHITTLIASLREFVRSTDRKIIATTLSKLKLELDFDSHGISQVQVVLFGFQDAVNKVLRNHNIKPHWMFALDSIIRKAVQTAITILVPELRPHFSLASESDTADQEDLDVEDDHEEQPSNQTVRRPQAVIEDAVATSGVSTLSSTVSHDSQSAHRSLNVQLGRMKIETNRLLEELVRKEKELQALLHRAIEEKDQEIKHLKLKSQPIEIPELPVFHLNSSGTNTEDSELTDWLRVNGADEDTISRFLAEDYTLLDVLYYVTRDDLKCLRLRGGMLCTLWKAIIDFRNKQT
Protocol: The plates were incubated at 37° C. overnight. Media on plates was changed to OPTI-MEM, serum free media and cells were transfected with 9 μg of ASK1-V5 tagged full length plasmid using Lipofectamine 2000 (Invitrogen) and the plates were incubated at 37° C. overnight. Cells were trypsinized, counted on Nexcellometer and plated into 96 well tissue culture plates with 100,000 cells/well and 200 μL media. Cells were incubated for 4 hr at 37° C. then ASK1 compounds were added using a HP 300e. Compounds were tested at 20 μM with 3 fold, 10 point dilution points then incubated for 1 hr at 37° C. A lysis buffer (Cell Signaling) was prepared with protease and phosphatase inhibitor and maintained at 4° C. until use. Media from cells was discarded and 120 μL of cold lysis buffer was added to the cells, the plate was shaken 4° C. for 1 hr. Lysate was mixed using Apricot liquid handler; aspirating up and down 16 times at high speed using 50 μL volume. […] Plates were then incubated on a plate shaker overnight at 4° C. Plates were washed 3× with MSD wash buffer and 50 μL of rabbit anti-pASK1 T838 antibody was added to the wells and incubated for 2 hr at room temperature on a plate shaker. Plates were then washed and 50 μL of goat anti-rabbit sulfa-tag (1:500 dilution) was added to wells, and incubated for 1 hr at room temperature on a plate shaker. […] Plates were immediately read on a MSD Instrument Reader where chemoluminecense signal was measured. Data was analyzed using Graph Pad or Genedata, the data was normalized and plotted, % activity versus log of compound concentration. The IC50 values were obtained from a 4 parameter fit.

[2] = molecular target: ASK1/MAP3K5 (Homo sapiens (Human), UniProt Q99683); assay: ASK1/MAP3K5 assay by Reaction Biology Corp.; type: biochemical
Sequence of ASK1/MAP3K5 (Q99683 whole entry): as above
Protocol: ASK1/MAP3K5 was used as the protein kinase and 20 μM of myelin basic protein (MBP) and 10 μM ATP were used as the substrate.

[3] = 20 μM myelin basic protein (MBP), 10 μM ATP

Molecule | IC50 [1] [nM] | IC50 [2, 3] [nM] | IC50 [2] [nM]
O=C1Nc2cccc(n2)-c2nncn2CCCCOc2cc(F)c(-c3cncc(C(F)(F)F)c3)cc21 [Example 58, 5^4-Fluoro-5^5-(5-(trifluoromethyl)pyridin-3-yl)-1^4H-6-oxa-3-aza-2(2,6)-pyridina-1(3,4)-triazola-5(1,2)-benzenacyclodecaphan-4-one] | < 1000 | < 100 | –
CN1CCN(c2ccc3c(c2)OCCCCn2cnnc2-c2cccc(n2)NC3=O)CC1 [Example 81, 5^4-(4-Methylpiperazin-1-yl)-1^4H-6-oxa-3-aza-2(2,6)-pyridina-1(3,4)-triazola-5(1,2)-benzenacyclodecaphan-4-one] | < 1000 | < 100 | –
(R)-5^4-Bromo-10-methyl-1^4H-6-oxa-3-aza-2(2,6)-pyridina-1(3,4)-triazola-5(1,2)-benzenacyclodecaphan-4-one [Example 121] | > 10000 | 1000 to 10000 | –
O=C1Nc2cccc(n2)-c2nncn2CCCCOc2cc(F)c(-c3ccnc(C4CC4)c3)cc21 [Example 56, 5^5-(2-Cyclopropylpyridin-4-yl)-5^4-fluoro-1^4H-6-oxa-3-aza-2(2,6)-pyridina-1(3,4)-triazola-5(1,2)-benzenacyclodecaphan-4-one] | < 1000 | < 100 | –
C[C@@H]1CCCn2cnnc2-c2cccc(n2)NC(=O)c2cc(N3CCN(C)CC3)ccc2O1 [Example 141, (R)-7-Methyl-5^5-(4-methylpiperazin-1-yl)-1^4H-6-oxa-3-aza-2(2,6)-pyridina-1(3,4)-triazola-5(1,2)-benzenacyclodecaphan-4-one] | < 1000 | < 100 | –
O=C1Nc2cccc(n2)-c2nncn2CCCCOc2cc(N3CCOCC3)ccc21 [Example 80, 5^4-Morpholino-1^4H-6-oxa-3-aza-2(2,6)-pyridina-1(3,4)-triazola-5(1,2)-benzenacyclodecaphan-4-one] | < 1000 | < 100 | –
O=C1Nc2cccc(n2)-c2nncn2C/C=C\CCOc2cc(F)c(Br)cc21 [Example 176, (E)-5^5-Bromo-5^4-fluoro-1^4H-6-oxa-3-aza-2(2,6)-pyridina-1(3,4)-triazola-5(1,2)-benzenacycloundecaphan-9-en-4-one] | 1000 to 10000 | < 100 | –
C[C@@H]1CCCn2cnnc2-c2cccc(n2)NC(=O)c2cc(-c3ccncc3)ccc2O1 [Example 145, (R)-7-Methyl-5^5-(pyridin-4-yl)-1^4H-6-oxa-3-aza-2(2,6)-pyridina-1(3,4)-triazola-5(1,2)-benzenacyclodecaphan-4-one] | < 1000 | < 100 | –
Cc1ccc(-c2cc3c(cc2F)OCCCCn2cnnc2-c2cccc(n2)NC3=O)cn1 [Example 57, 5^4-Fluoro-5^5-(6-methylpyridin-3-yl)-1^4H-6-oxa-3-aza-2(2,6)-pyridina-1(3,4)-triazola-5(1,2)-benzenacyclodecaphan-4-one] | < 1000 | < 100 | –
C[C@H]1CCCn2cnnc2-c2cccc(n2)NC(=O)c2cc(N3CCOCC3)ccc2O1 [Example 142, (S)-7-Methyl-5^5-morpholino-1^4H-6-oxa-3-aza-2(2,6)-pyridina-1(3,4)-triazola-5(1,2)-benzenacyclodecaphan-4-one] | < 1000 | < 100 | –
C[C@H]1CCOc2cc(F)c(Br)cc2C(=O)Nc2cccc(n2)-c2nncn2C1 [Example 124, (S)-5^5-Bromo-5^4-fluoro-9-methyl-1^4H-6-oxa-3-aza-2(2,6)-pyridina-1(3,4)-triazola-5(1,2)-benzenacyclodecaphan-4-one] | < 1000 | < 100 | –
C[C@H]1CCCOc2cc(F)c(-c3cncnc3)cc2C(=O)Nc2cccc(n2)-c2nncn21 [Example 110, (S)-5^4-Fluoro-10-methyl-5^5-(pyrimidin-5-yl)-1^4H-6-oxa-3-aza-2(2,6)-pyridina-1(3,4)-triazola-5(1,2)-benzenacyclodecaphan-4-one] | < 1000 | < 100 | –
O=C1Nc2cccc(n2)-c2nncn2CCCCOc2cc(F)c(N3CCOCC3)cc21 [Example 71, 5^4-Fluoro-5^5-morpholino-1^4H-6-oxa-3-aza-2(2,6)-pyridina-1(3,4)-triazola-5(1,2)-benzenacyclodecaphan-4-one] | < 1000 | < 100 | –
CN(C)CCn1cc(-c2cc3c(cc2F)OCC/C=C/Cn2cnnc2-c2cccc(n2)NC3=O)cn1 [Example 178, (E)-5^5-(1-(2-(Dimethylamino)ethyl)-1H-pyrazol-4-yl)-5^4-fluoro-1^4H-6-oxa-3-aza-2(2,6)-pyridina-1(3,4)-triazola-5(1,2)-benzenacycloundecaphan-9-en-4-one] | < 1000 | < 100 | –
C[C@@H]1CCCOc2cc(F)c(Br)cc2C(=O)Nc2cccc(n2)-c2nncn21 [Example 102, (R)-5^5-Bromo-5^4-fluoro-10-methyl-1^4H-6-oxa-3-aza-2(2,6)-pyridina-1(3,4)-triazola-5(1,2)-benzenacyclodecaphan-4-one] | > 10000 | 1000 to 10000 | –
O=C1Nc2cccc(n2)-c2nncn2C/C=C\CCOc2cc(F)c(N3CCOCC3)cc21 [Example 181, (Z)-5^4-Fluoro-5^5-morpholino-1^4H-6-oxa-3-aza-2(2,6)-pyridina-1(3,4)-triazola-5(1,2)-benzenacycloundecaphan-9-en-4-one] | < 1000 | < 100 | –
O=C1Nc2cccc(n2)-c2nncn2C/C=C/CCOc2ccccc21 [Example 175, (Z)-1^4H-6-oxa-3-aza-2(2,6)-pyridina-1(3,4)-triazola-5(1,2)-benzenacycloundecaphan-9-en-4-one] | < 1000 | < 100 | –
CN1CC=C(c2cc3c(cc2F)C(=O)Nc2cccc(n2)-c2nncn2CCCCO3)CC1 [Example 85, 5^5-Fluoro-5^4-(1-methyl-1,2,3,6-tetrahydropyridin-4-yl)-1^4H-6-oxa-3-aza-2(2,6)-pyridina-1(3,4)-triazola-5(1,2)-benzenacyclodecaphan-4-one] | < 1000 | < 100 | –
O=C1Nc2cccc(n2)-c2nncn2CCCCOc2ccc(-c3cnn(C4COC4)c3)cc21 [Example 38, 5^5-(1-(Oxetan-3-yl)-1H-pyrazol-4-yl)-1^4H-6-oxa-3-aza-2(2,6)-pyridina-1(3,4)-triazola-5(1,2)-benzenacyclodecaphan-4-one] | < 1000 | < 100 | –
O=C1Nc2cccc(n2)-c2nncn2C/C=C/COc2ccc(N3CCOCC3)cc21 [Example 168, (E)-5^5-Morpholino-1^4H-6-oxa-3-aza-2(2,6)-pyridina-1(3,4)-triazola-5(1,2)-benzenacyclodecaphan-8-en-4-one] | < 1000 | – | < 100
CN(C)Cc1ccc2c(c1)C(=O)Nc1cccc(n1)-c1nncn1CCCCO2 [Example 48, 5^5-((Dimethylamino)methyl)-1^4H-6-oxa-3-aza-2(2,6)-pyridina-1(3,4)-triazola-5(1,2)-benzenacyclodecaphan-4-one] | < 1000 | < 100 | –
O=C1Nc2cccc(n2)-c2nncn2CCCCOc2c(Br)cccc21 [Example 165, 5^3-Bromo-1^4H-6-oxa-3-aza-2(2,6)-pyridina-1(3,4)-triazola-5(1,2)-benzenacyclodecaphan-4-one] | 1000 to 10000 | 100 to 1000 | –
O=C1Nc2cccc(n2)-c2nncn2CCCCOc2ccc(-c3cnn(C4CCC4)c3)cc21 [Example 35, 5^5-(1-Cyclobutyl-1H-pyrazol-4-yl)-1^4H-6-oxa-3-aza-2(2,6)-pyridina-1(3,4)-triazola-5(1,2)-benzenacyclodecaphan-4-one] | < 1000 | < 100 | –
C[C@@H]1CN(C)CCN1c1ccc2c(c1)OCCCCn1cnnc1-c1cccc(n1)NC2=O [Example 83, (R)-5^4-(2,4-Dimethylpiperazin-1-yl)-1^4H-6-oxa-3-aza-2(2,6)-pyridina-1(3,4)-triazola-5(1,2)-benzenacyclodecaphan-4-one] | < 1000 | < 100 | –
O=C1Nc2cccc(n2)-c2nncn2CCCCOc2cc(F)c(N3CC4CC(C3)O4)cc21 [Example 72, 5^5-(6-Oxa-3-azabicyclo[3.1.1]heptan-3-yl)-5^4-fluoro-1^4H-6-oxa-3-aza-2(2,6)-pyridina-1(3,4)-triazola-5(1,2)-benzenacyclodecaphan-4-one] | < 1000 | < 100 | –
COCCNc1cc2c(cc1F)C(=O)Nc1cccc(n1)-c1nncn1CCCCO2 [Example 88, 5^5-Fluoro-5^4-((2-methoxyethyl)amino)-1^4H-6-oxa-3-aza-2(2,6)-pyridina-1(3,4)-triazola-5(1,2)-benzenacyclodecaphan-4-one] | < 1000 | < 100 | –
O=C1Nc2cccc(n2)-c2nncn2CCCCOc2cc(F)c(-c3ccc(C4CC4)nc3)cc21 [Example 59, 5^5-(6-Cyclopropylpyridin-3-yl)-5^4-fluoro-1^4H-6-oxa-3-aza-2(2,6)-pyridina-1(3,4)-triazola-5(1,2)-benzenacyclodecaphan-4-one] | < 1000 | < 100 | –
